Experimental findings from patent US20080176857A1, “4-Piperazinnylthieno[2,3-d]Pyrimidine Compounds as Platelet Aggregation Inhibitors” (priority 2005, published 2008) are described below.

In this assay the target is P2Y12 receptor (Homo sapiens, UniProt Q9H244). In words: [33P]-2MeS-ADP binding to recombinant human P2Y12 membranes (Assay 3). On the set-up: expressed in transfected cells; host or cells: HEK cells. The following applies: for IC50 / Ki: HEK cell membranes expressing human P2Y12, competition with 33P 2MeS-ADP; for inhibition at 10 µM / % Inhibition: at highest concentration tested, 10 μM. The method, then: 3. Human P2Y12 Recombinant Cell Membrane Binding Assay with ^33P 2MeS-ADP.
Sequence of P2Y12 receptor (Q9H244 whole entry): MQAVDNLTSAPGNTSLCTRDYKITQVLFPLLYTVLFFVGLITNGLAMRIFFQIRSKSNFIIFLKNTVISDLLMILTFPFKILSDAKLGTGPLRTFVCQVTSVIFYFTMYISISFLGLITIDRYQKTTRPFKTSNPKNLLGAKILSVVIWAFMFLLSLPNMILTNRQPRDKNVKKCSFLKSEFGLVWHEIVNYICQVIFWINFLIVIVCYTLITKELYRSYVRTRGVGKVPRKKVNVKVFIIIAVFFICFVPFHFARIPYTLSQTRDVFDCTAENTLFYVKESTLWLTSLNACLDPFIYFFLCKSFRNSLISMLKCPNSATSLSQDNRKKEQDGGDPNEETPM
The ability of a test compound to bind to the P2Y12 receptor was evaluated in a recombinant cell membrane binding assay. In this competitive binding assay, the test compound competed against a radiolabelled agonist for binding to the P2Y12 receptor, expressed on the cell membrane. Inhibition of binding of the labeled material was measured and correlated to the amount and potency of the test compound. Data from this assay are presented in Table F. This binding assay is a modification of the procedure in Takasaki, J. et. al, Mol. Pharmacol., 2001, Vol. 60, pg. 432.
HEK cells were transfected with the pDONR201P2Y12 vector and cultured in MEM with GlutaMAX I, Earle's salts, 25 mM HEPES (Gibco # 42360-032) containing 10% dialyzed FBS (Gibco # 26400-044), 100 μM nonessential amino acids (Gibco # 11140-050), 1 mM sodium pyruvate (Gibco # 11360-070), 0.05% geneticin (Gibco #10131-027), 3 μg/mL blasticidin (Fluka brand from Sigma # 15205), and 0.5 μg/mL puromycin (Sigma # P-8833).
Confluent cells were washed once with cold DPBS (Gibco # 14190-136). Fresh DPBS was added and the cells were scraped and centrifuged at 500×g for 5 minutes at 4° C. The cell pellets were resuspended in TEE buffer (25 mM Tris, 5 mM EDTA, 5 mM EGTA) containing 1 protease inhibitor cocktail tablet (Roche # 1 873 580) per 50 mL (called TEE+Complete) and can be flash frozen at this point.
In one embodiment, frozen cell pellets were used to prepare the membranes. In that embodiment, the frozen cell pellets were thawed on ice. In another embodiment, cell pellets may be used without flash freezing before moving on to the next step.
Cell pellets were resuspended in TEE buffer+Complete and homogenized in a glass dounce for 12 strokes. The cell suspension was centrifuged at 500×g for 5 minutes at 4° C. The supernatant was saved and centrifuged at 20,000×g for 20 minutes at 4° C. This supernatant was discarded and the cell pellet resuspended in TEE buffer+Complete and homogenized in a glass dounce for 12 strokes. This suspension was centrifuged at 20,000×g for 20 minutes at 4° C. and the supernatant discarded. The pellet was resuspended in assay buffer (50 mM Tris, 100 mM NaCl, 1 mM EDTA) containing one protease inhibitor cocktail tablet per 50 mL, and can be flash frozen as 1 mL aliquots at this point.
Dry compounds were diluted as 10 mM DMSO stocks and tested in a seven-point, three-fold dilution series run in triplicate beginning at 10 μM, final concentration. A 1 mM DMSO intermediate stock was made in a dilution plate and from this the seven dilutions were made to 5× the final concentration in assay buffer containing 0.02% BSA.
The plates were incubated at room temperature for 1 hour. The reaction was stopped using a cell harvester to transfer the reaction mixture onto GF/B UniFilter plates (Perkin Elmer # 6005177), and washed three times with wash buffer (50 mM Tris), filtering between each wash. The filter plates were dried for approximately 20 minutes in an oven at 50° C. Back seals were adhered to the filter plates and 25 uL of Microscint 20 scintillation fluid (Perkin Elmer # 6013621) were added. The filter plates were sealed, shaken for 30 minutes, and counted on a Top Count. Data were analyzed using a four-parameter curve fit with a fixed minimum and maximum experimentally defined as the average positive and negative controls on each plate, and with a hill slope equal to one.
The table below presents the IC50, Ki, and percent inhibition values for compounds tested in either washed human platelets membrane binding assay (assay #1 above) or recombinant cell membrane binding assay (Assay #3, above). Example number refers to the compound prepared as described in the example noted in the section Working Examples, above. The highest concentration of candidate compound tested is listed for each experimental run presented. […]

In general, IC50 refers to the concentration that inhibits the measured activity by half. Usually Ki stands for a measure of affinity in units of concentration, obtained from inhibition or displacement. The term inhibition denotes the change of the read-out against control, counted positive when it falls. What is called % Inhibition is the change of the read-out against control, counted positive when it falls.

SMILES strings stand for the structures. Several values for one entry are separate records, joined by “and”; a condition that tells them apart may be missing. Identical values can stand only once.

Turning to `CCc1cc2c(N3CCN(C(=O)c4cc(F)cc(F)c4)CC3)nc(SCC(=O)OC)nc2s1` [Example 51, Methyl ({4-[4-(3,5-difluorobenzoyl)piperazin-1-yl]-6-ethylthieno[2,3-d]pyrimidin-2-yl}thio)acetate], the IC50 was 1.58 µM, the inhibitory constant (Ki) turned out to be 1.05 µM and the inhibition at 10 µM worked out at 74.2%.

Regarding `CCc1cc2c(N3CCN(C(=O)c4ccc(C#N)cc4)CC3)nc(SCC(=O)OC)nc2s1` [Example 52, Methyl ({4-[4-(4-cyanobenzoyl)piperazin-1-yl]-6-ethylthieno[2,3-d]pyrimidin-2-yl}thio)acetate], the IC50 was determined as 2.67 µM, the Ki stood at 1.78 µM and the inhibition at 10 µM worked out at 67.7%.

As for `CCc1cc2c(N3CCN(C(=O)c4cc(F)ccc4F)CC3)nc(SCC(=O)OC)nc2s1` [Example 53, Methyl ({4-[4-(2,5-difluorobenzoyl)piperazin-1-yl]-6-ethylthieno[2,3-d]pyrimidin-2-yl}thio)acetate], the 50% inhibitory concentration (IC50) was 2.33 µM, the inhibitory constant (Ki) came to 1.56 µM and the inhibition at 10 µM is 68.8%.

With `CCc1cc2c(N3CCN(C(=O)c4ccc(N(C)C)cc4)CC3)nc(SCC(=O)OC)nc2s1` [Example 54, Methyl [(4-{4-[4-(dimethylamino)benzoyl]piperazin-1-yl}-6-ethylthieno[2,3-d]pyrimidin-2-yl)thio]acetate], the half-maximal inhibitory concentration (IC50) is 6.19 µM and 4.44 µM; the Ki is 3.56 µM and 2.96 µM; the “% Inhibition” value is given as 61.77%; the inhibition at 10 µM came to 47.8%.

On to `CCc1cc2c(N3CCN(C(=O)c4ccc5ccccc5c4)CC3)nc(SCC(=O)OC)nc2s1` [Example 55, Methyl ({6-ethyl-4-[4-(2-naphthoyl)piperazin-1-yl]thieno[2,3-d]pyrimidin-2-yl}thio)acetate], for which the IC50 stood at 1.47 µM, the inhibition constant Ki was found to be 0.98 µM and the inhibition at 10 µM is 61.2%.

Regarding `CCc1cc2c(N3CCN(C(=O)c4ccccc4)CC3)nc(SCC(=O)OC)nc2s1` [Example 56, Methyl {[4-(4-benzoylpiperazin-1-yl)-6-ethylthieno[2,3-d]pyrimidin-2-yl]thio}acetate], the IC50 came out at 3.04 µM, the Ki is 1.52 µM and the inhibition at 10 µM is 64.1%.

On to `CCOc1ccc(C(=O)N2CCN(c3nc(SCC(=O)OC)nc4sc(CC)cc34)CC2)cc1` [Example 57, Methyl ({4-[4-(4-ethoxybenzoyl)piperazin-1-yl]-6-ethylthieno[2,3-d]pyrimidin-2-yl}thio)acetate], for which the half-maximal inhibitory concentration (IC50) worked out at 1.05 µM, the Ki was 0.524 µM and the inhibition at 10 µM worked out at 80.8%.

As to `CCc1cc2c(N3CCN(C(=O)CCOC)CC3)nc(SCC(=O)OC)nc2s1` [Example 58, Methyl ({6-ethyl-4-[4-(3-methoxypropanoyl)piperazin-1-yl]thieno[2,3-d]pyrimidin-2-yl}thio)acetate], the half-inhibitory concentration (IC50) is 5.25 µM, the Ki is 2.62 µM and the inhibition at 10 µM worked out at 53.6%.

`CCc1cc2c(N3CCN(C(=O)c4ccc(OC)cc4)CC3)nc(SCC(=O)OC)nc2s1` [Example 59, Methyl ({6-ethyl-4-[4-(4-methoxybenzoyl)piperazin-1-yl]thieno[2,3-d]pyrimidin-2-yl}thio)acetate]: the 50% inhibitory concentration (IC50) turned out to be 2.97 µM, the inhibition constant Ki is 1.48 µM and the inhibition at 10 µM came to 67.1%.

Consider `CCc1cc2c(N3CCN(C(=O)c4cccc(C(F)(F)F)c4)CC3)nc(SCC(=O)OC)nc2s1` [Example 60, Methyl [(6-ethyl-4-{4-[3-(trifluoromethyl)benzoyl]piperazin-1-yl}thieno[2,3-d]pyrimidin-2-yl)thio]acetate], for which the IC50 worked out at 4.87 µM, the Ki stood at 3.16 µM and the inhibition at 10 µM came to 60.8%.

Consider `CCc1cc2c(N3CCN(C(=O)c4cccc(C)c4)CC3)nc(SCC(=O)OC)nc2s1` [Example 61, Methyl ({6-ethyl-4-[4-(3-methylbenzoyl)piperazin-1-yl]thieno[2,3-d]pyrimidin-2-yl}thio)acetate], for which the IC50 turned out to be 1.91 µM, the Ki is 1.24 µM and the inhibition at 10 µM stood at 78.5%.

In the case of `CCc1cc2c(N3CCN(C(=O)c4ccc5[nH]ccc5c4)CC3)nc(SCC(=O)OC)nc2s1` [Example 62, Methyl ({6-ethyl-4-[4-(1H-indol-5-ylcarbonyl)piperazin-1-yl]thieno[2,3-d]pyrimidin-2-yl}thio)acetate], the half-inhibitory concentration (IC50) was 5.86 µM, the Ki was determined as 3.53 µM and the inhibition at 10 µM was 50.9%.

Turning to `CCc1cc2c(N3CCN(C(=O)c4ccc5cc[nH]c5c4)CC3)nc(SCC(=O)OC)nc2s1` [Example 63, Methyl ({6-ethyl-4-[4-(1H-indol-6-ylcarbonyl)piperazin-1-yl]thieno[2,3-d]pyrimidin-2-yl}thio)acetate], the IC50 amounted to 1.88 µM, the inhibition constant (Ki) was 1.13 µM and the inhibition at 10 µM came out at 68.1%.

Regarding `CCc1cc2c(N3CCN(C(=O)c4cccc(C#N)c4)CC3)nc(SCC(=O)OC)nc2s1` [Example 64, Methyl ({4-[4-(3-cyanobenzoyl)piperazin-1-yl]-6-ethylthieno[2,3-d]pyrimidin-2-yl}thio)acetate], the 50% inhibitory concentration (IC50) is 0.157 µM and 0.417 µM and 0.33 µM; the Ki was 0.094 µM and 0.252 µM and 0.212 µM; the “% Inhibition” value was 81.22% and 90.29%; the inhibition at 10 µM came to 91.3%.

As for `CCc1cc2c(N3CCN(C(=O)c4ccc5ccoc5c4)CC3)nc(SCC(=O)OC)nc2s1` [Example 65, Methyl ({4-[4-(1-benzofuran-6-ylcarbonyl)piperazin-1-yl]-6-ethylthieno[2,3-d]pyrimidin-2-yl}thio)acetate], the IC50 came to 0.62 µM, the Ki came to 0.37 µM and the inhibition at 10 µM is 81%.

Take `CCc1cc2c(N3CCN(C(=O)c4ccc(-c5csnn5)cc4)CC3)nc(SCC(=O)OC)nc2s1` [Example 66, Methyl [(6-ethyl-4-{4-[4-(1,2,3-thiadiazol-4-yl)benzoyl]piperazin-1-yl}thieno[2,3-d]pyrimidin-2-yl)thio]acetate]: the half-inhibitory concentration (IC50) was determined as 0.45 µM, the Ki is 0.27 µM and the inhibition at 10 µM stood at 74.6%.

Consider `CCc1cc2c(N3CCN(C(=O)c4ccc5c(c4)OCC5)CC3)nc(SCC(=O)OC)nc2s1` [Example 67, Methyl ({4-[4-(2,3-dihydro-1-benzofuran-6-ylcarbonyl)piperazin-1-yl]-6-ethylthieno[2,3-d]pyrimidin-2-yl}thio)acetate], for which the half-inhibitory concentration (IC50) was found to be 1.23 µM, the inhibition constant Ki is 0.74 µM and the inhibition at 10 µM was 79.7%.

For the molecule `CCc1cc2c(N3CCN(C(=O)c4c(-c5ccc(OC)cc5)noc4C)CC3)nc(SCC(=O)OC)nc2s1` [Example 68, Methyl {[6-ethyl-4-(4-{[3-(4-methoxyphenyl)-5-methylisoxazol-4-yl]carbonyl}piperazin-1-yl)thieno[2,3-d]pyrimidin-2-yl]thio}acetate], the IC50 worked out at 6.42 µM, the inhibition constant (Ki) came to 3.88 µM and the inhibition at 10 µM was determined as 96.4%.

As for `CCc1cc2c(N3CCN(C(=O)c4csc(-c5ccccc5)n4)CC3)nc(SCC(=O)OC)nc2s1` [Example 69, Methyl [(6-ethyl-4-{4-[(2-phenyl-1,3-thiazol-4-yl)carbonyl]piperazin-1-yl}thieno[2,3-d]pyrimidin-2-yl)thio]acetate], the IC50 was determined as 0.0878 µM, the inhibition constant (Ki) came to 0.053 µM and the inhibition at 10 µM came to 56.8%.
